Assays:
wild-type SUR2A NBD2 = assay: NBD2 ATPase activity by spectrophotometry, wild-type; type: biochemical
Procedure: (§1) Cloning of KATP channel subunits and purification of SUR2A ATPase. cDNAs encoding SUR2A and Kir6.2 were subcloned into the expression vector pcDNA3.1. PCR-based site-directed mutagenesis was carried out using primers incorporating identified mutations (QuickChange, Stratagene). The constructs were sequenced to verify mutations and rule out additional changes in sequence. […]
(§2) Enzymology and nucleotide binding. ATPase activity of purified NBD2 was measured in the presence of Mg^2+, as Pi generation detected spectrophotometrically at 360 nm with the EnzChek Phosphate Assay Kit or by monitoring conversion of [γ-^32P]ATP using thin layer chromatography and quantified it with Phosphorlmager and ImageQuant software (Molecular Dynamics) (Zingman et al., 2002, supra). […] Binding of fluorescent ATP analog TNP-ATP to purified NBD2 constructs was determined by fluorescence spectrophotometry (QuantaMaster, PTI) at excitation and emission wavelengths of 410 nm and 540 nm, respectively. […]
(§3) The ADP dissociation constant, KADP, was determined from spectrometric measurement of steady-state NBD2 ATPase activity at [ADP]=O with variable [ATP]. […]

A1513T SUR2A NBD2 = assay: NBD2 ATPase activity by spectrophotometry, A1513T mutant; type: biochemical
Procedure: as §1, §2, §3

Fs1524 SUR2A NBD2 = assay: NBD2 ATPase activity by spectrophotometry, Fs1524 mutant; type: biochemical
Procedure: as §1, §2, §3

[1] = tested on: hypertensive wild-type mice; assay: Dobutamine challenge, left ventricular catheterization, hypertensive wild-type; type: in vivo; settings: dobutamine 15 mg/kg i.p.
Procedure: Left Ventricular Catheterization. Invasive left ventricular pressure recordings were measured in vivo by a 1.4-Fr micropressure catheter (SPR-671, Millar Instruments) following carotid arterial cannulation and advancement across the aortic valve under 2,2,2 tri-bromoethanol ([…] i.p.; Sigma) anesthesia, before and after dobutamine (15 mg/kg i.p.) challenge. Left ventricular developed pressure was defined as the absolute difference between the maximum and minimum left ventricular pressure (mm Hg) and the relaxation time as the time from maximal rate of pressure decay to minimum left ventricular pressure (ms).

[2] = tested on: patient with atrial fibrillation; type: in vivo, human; settings: for response of atrial fibrillation to antiarrhythmic medical therapy: patient
wild-type hearts [3] = assay: Coronary flow in isolated perfused wild-type hearts; set-up: species or system mice
wild-type hearts [4] = assay: Monophasic action potentials in Langendorff-perfused wild-type hearts under isoproterenol; set-up: species or system mice
Procedure: (§4) In situ aortic cannulation and Langendorff perfusion. Mice were anesthetized with intraperitoneal injection of 2,2,2 tri-bromoethanol (0.375 mg/g body weight; Sigma), intubated, ventilated, and the aortic root cannulated in situ (Hodgson et al., 2003, supra). Perfusion was sustained ex vivo on a Langendorff system at 90 cm H2O, with 37° C.-prewarmed and 100% O2-bubbled Tyrode solution (in mM: NaCl 137, KCl 5.4, CaCl2 2, MgCl2 1, HEPES 10, glucose 10; pH 7.4 with NaOH). Following 10-min equilibration, KCl was reduced to 2.7 mM and MgCl2 to 0.35 mM, with the atrioventricular node cauterized to allow ventricular pacing. Coronary flow was monitored with a T106 blood flow meter (Transonic Systems).
(§5) Electrogram and monophasic action potential recordings. Orthogonal electrogram signals were simultaneously recorded using four silver-silver chloride electrodes surrounding the perfused heart in a simulated “Einthoven” configuration, and signals amplified by an electrocardiographic amplifier (Gould Electronics). A catheter (NuMed) was placed in the left ventricular endocardium to pace the heart at twice diastolic threshold intensity with 2 ms pulse width and 100 ms cycle length using a pulse generator (A310 Accupulser, World Precision Instruments). Monophasic action potentials were continuously recorded from the left ventricle by a probe (EP Technologies) positioned on the epicardial surface, and amplified signals (IsoDam, World Precision Instruments) acquired at 11.8 kHz and stored for off-line digital analysis.

Kir6.2-KO hearts = assay: Monophasic action potentials in Langendorff-perfused Kir6.2-KO hearts under isoproterenol; set-up: species or system mice
Text: Kir6.2-knockout mice. Mice deficient in KATP channels were generated by targeted disruption of the KCNJ11 gene, which encodes the pore-forming Kir6.2 subunit of the channel complex (Miki et al., 1998, supra). Kir6.2-knockout mice were backcrossed for five generations into a C57BL/6 background. This investigation was approved by the Mayo Clinic Institutional Animal Care and Use Committee.
as §4, §5

Kir6.2 knockout mice = assay: Telemetric rhythm monitoring under isoproterenol challenge, KATP channel knockout mice; type: in vivo; settings: isoproterenol 10 mg/kg injection; within 20 min
Text: (§6) KATP channel knockout mice were backcrossed for 5 generations to a C57BL/6 background. With approval of the Mayo Foundation Institutional Animal Care and Use Committee, the heart rate and electrocardiogram were continuously monitored in the conscious state. To this end, KATP channel knockout or 8- to 12-week old, age- and sex-matched C57BL/6 wild-type mice were implanted with telemetry devices (Data Sciences International) and leads tunneled subcutaneously under isoflurane anesthesia. Following a 2-week recovery from surgery, serial signals were acquired at 2 kHz before and during isoproterenol challenge.

wild-type mice = assay: Telemetric rhythm monitoring under isoproterenol challenge, wild-type mice; type: in vivo; settings: isoproterenol 10 mg/kg injection
Text: as §6

Kir6.1-KO mice = settings: mouse, in vivo, sc
Text: Kir6.1-deficient Mice. Mice deficient in vascular KATP channels (Kir6.1-KO), while maintaining normal KATP channel current in non-vascular tissues including the myocardium, were generated by targeted disruption of the KCNJ8 gene encoding the pore-forming Kir6.1 subunit and backcrossed for more than 5 generations to a C57BL/6 background (Miki et al., 2002, Nat. Med., 8:466-72). Six to eight week-old Kir6.1-KO mice were compared to age and sex matched wild-type littermate controls or to mice lacking non-vascular, including myocardial, KATP channels generated by targeted disruption of the KCNJ11 gene that encodes the Kir6.2 channel pore (Zingman et al., 2002, PNAS USA, 99:13278-83; Suzuki et al., 2001, Circ. Res., 88:570-7). […] Comparisons between groups were performed by analysis of variance, Student's t-tests, non-parametric or log-rank tests, using JMP software (SAS). Data are presented as mean±SEM; n refers to the sample size. P<0.05 was predetermined. All chemicals were obtained from Sigma. The Mayo Foundation Institutional Animal Care and Use Committee approved all experimental protocols.
Endotoxic Shock. The shock state of severe sepsis was modeled by administration of Escherichia coli LPS serotype 0111:B4 (Natanson et al., 1989, J. Exp. Med., 169:823-32; Suffredini et al., 1989, N. Engl. J. Med., 321:280-7). […]

Kir6.1-KO hearts = assay: Coronary flow in isolated perfused Kir6.1-KO hearts; set-up: species or system mice
Procedure: Coronary Flow. The aorta was cannulated in situ. […] Coronary flow was continuously measured with a T106 small animal blood flow meter (Transonic Systems Incorporated). The effect of recombinant murine TNFα was assessed at least 20 min after flow stabilization. […] Maximum vasodilation was defined as the peak increase in coronary flow observed in the wild-type in response to 10 μl of 1 mM adenosine after at least 10 min of return to baseline flow on TNFα washout.

[5] = tested on: hypertensive wild-type mice; assay: Mineralocorticoid/salt hypertension with pharmacologic intervention, wild-type mice; type: in vivo; settings: verapamil 250 μg orally daily
Procedure: KATP Channel Knockout and Experimental Hypertension. KATP channel-deficient mice (Kir6.2-KO) were generated by targeted disruption of the KCNJ11 gene (Miki et al., 1998, PNAS USA, 95:10402-6) which encodes the pore-forming Kir6.2 channel subunit of myocardial but not renal or vascular KATP channels, and backcrossed for 5 generations to a C57BL/6 background. […] Water or salt water intake was measured weekly. All mice were given standard rodent chow, had similar awake non-fasting blood glucose levels measured by tail sampling (Table 2; OneTouch Ultra, Lifescan), were housed individually with a 12 h day/night cycle, and were observed daily until termination of the study at day 21. Following one-week of acclimatization, blood pressure was measured by automated tail-cuff recording (Columbus Instruments) in awake restrained wild-type and Kir6.2-KO mice, 2 weeks post-nephrectomy with or without mineralocorticoid/salt loading. […]
Gross Pathology and Tissue Fibrosis. […] Lung samples were dried at 65° C. for 48 h and reweighed with pulmonary congestion assessed by comparing wet to dry lung weight ratios. Interstitial fibrosis was quantified by computer analysis (MetaMorph, Visitron Universal Imaging) of 0.5-μm thick, paraffin-embedded, Masson's trichrome-stained sections. […] All quantification was performed blinded to the sample origin. […]

[6] = tested on: hypertensive Kir6.2-KO mice; settings: verapamil 250 μg orally daily
Text: KATP Channel Knockout and Experimental Hypertension. KATP channel-deficient mice (Kir6.2-KO) were generated by targeted disruption of the KCNJ11 gene (Miki et al., 1998, PNAS USA, 95:10402-6) which encodes the pore-forming Kir6.2 channel subunit of myocardial but not renal or vascular KATP channels, and backcrossed for 5 generations to a C57BL/6 background. With approval of the Mayo Foundation Institutional Animal Care and Use Committee, Kir6.2-KO or 8- to 12-week old, age-matched, C57BL/6 male wild-type mice had left nephrectomy through a retroperitoneal flank excision under isoflurane-anesthesia to reduce clearance and mineralocorticoid-hypertension was induced for 21 days by subcutaneous implantation of a 50 mg 21-day-release deoxycorticosterone-acetate pellet (Innovative Research of America) and drinking water supplementation with 1% NaCl/0.2% KCl. Control wild-type or Kir6.2-KO mice underwent nephrectomy alone. Water or salt water intake was measured weekly. […] Following one-week of acclimatization, blood pressure was measured by automated tail-cuff recording (Columbus Instruments) in awake restrained wild-type and Kir6.2-KO mice, 2 weeks post-nephrectomy with or without mineralocorticoid/salt loading. Systolic blood pressure was digitally derived from ten sequential recordings.
Gross Pathology and Tissue Fibrosis. At 21 days, whole heart, left ventricle including septum, kidney and lungs were removed, rinsed, blotted dry, and weighed ex vivo. Lung samples were dried at 65° C. for 48 h and reweighed with pulmonary congestion assessed by comparing wet to dry lung weight ratios. Interstitial fibrosis was quantified by computer analysis (MetaMorph, Visitron Universal Imaging) of 0.5-μm thick, paraffin-embedded, Masson's trichrome-stained sections. Kidney or left ventricular collagen content was determined by assaying hydroxyproline content after overnight hydrolysis by 12 N HCl with samples run in duplicate against standard hydroxyproline (Sigma). All quantification was performed blinded to the sample origin.
Isolated Cardiomyocytes, Immunohistochemistry and Calcium Imaging. […]

[7] = tested on: wild-type and mutated SUR2A NBD2; assay: TNP-ATP binding to purified NBD2 constructs (fluorescence, Scatchard); settings: Scatchard analysis
Procedure: Enzymology and nucleotide binding. ATPase activity of purified NBD2 was measured in the presence of Mg^2+, as Pi generation detected spectrophotometrically at 360 nm with the EnzChek Phosphate Assay Kit or by monitoring conversion of [γ-^32P]ATP using thin layer chromatography and quantified it with Phosphorlmager and ImageQuant software (Molecular Dynamics) (Zingman et al., 2002, supra). The initial kinetics of ATP hydrolysis was captured by stopped-flow spectroscopy with instantaneous mixing of purified polypeptide and substrate on an SX. 18MV spectrometer (Applied Photophysics). Binding of fluorescent ATP analog TNP-ATP to purified NBD2 constructs was determined by fluorescence spectrophotometry (QuantaMaster, PTI) at excitation and emission wavelengths of 410 nm and 540 nm, respectively.

[8] = ADP-dependent inhibition at 2 mM ATP, read-out: ADP-dissociation constant (KADP)
[9] = 0 ADP, creatine kinase 0.01 U/ml, creatine phosphate 5 mM

`Nc1ncnc2c1ncn2[C@@H]1O[C@H](COP(=O)(O)OP(=O)(O)O)[C@@H](O)[C@H]1O` [ADP] showed a Kd (wild-type SUR2A NBD2; [8]) of 8.6 ± 0.3 µM, a Kd (A1513T SUR2A NBD2; [8]) of 24.9 ± 5.6 µM and a Kd (Fs1524 SUR2A NBD2; [8]) of 11 ± 1.5 µM.
`Nc1ncnc2c1ncn2[C@@H]1O[C@H](COP(=O)(O)OP(=O)(O)OP(=O)(O)O)[C@@H](O)[C@H]1O` [ATP] was tested, and the “Michaelis-Menten constant of NBD2 ATPase (ATP dependence)” value (“Michaelis-Menten constant” for short) (wild-type SUR2A NBD2; [9]) was 0.11 ± 0.02 mM, the “Michaelis-Menten constant” value (A1513T SUR2A NBD2; [9]) was 0.094 ± 0.013 mM and the “Michaelis-Menten constant” value (Fs1524 SUR2A NBD2; [9]) was 0.084 ± 0.010 mM.
For `CC(CCc1ccc(O)cc1)NCCc1ccc(O)c(O)c1` (stereo not drawn) [dobutamine], the “response to inotropic challenge” value [1] was “normal contractile response to the same stress challenge with no death”.
For `O=C(NCC1CCCCN1)c1cc(OCC(F)(F)F)ccc1OCC(F)(F)F` (stereo not drawn) [flecainide], the “response of atrial fibrillation to antiarrhythmic medical therapy” value [2] was “refractory and/or intolerant”.
`COc1ccc(Cl)cc1C(=O)NCCc1ccc(S(=O)(=O)NC(=O)NC2CCCCC2)cc1` [glyburide] was tested, and the “TNFα-induced increase in coronary flow after glyburide pre-treatment” value (wild-type hearts [3]; 10 min perfusion of 10 μM glyburide before TNFα) was “not observed”.
`CC(C)NCC(O)c1ccc(O)c(O)c1` (stereo not drawn) [isoproterenol] was tested, and the “hearts with isoproterenol-induced afterdepolarizations complicated by triggered activity” value (wild-type hearts [4]; 1 out of 6) was 16%, the “monophasic action potential duration at 90% repolarization (APD90) after isoproterenol” value (wild-type hearts [4]; 10-min perfusion, isoproterenol 1 mM, before 82±2) was 74 ± 2 ms and the “early afterdepolarizations, share of action potentials examined” value (wild-type hearts [4]; isoproterenol challenge) was 1±1%. For the same molecule, the “hearts with isoproterenol-induced afterdepolarizations complicated by triggered activity” value (Kir6.2-KO hearts; Kir6.2-KO hearts, 6 out of 8) was 75%, the “monophasic action potential duration at 90% repolarization (APD90) after isoproterenol” value (Kir6.2-KO hearts; Kir6.2-KO hearts, 10-min perfusion, isoproterenol 1 mM, before 79±3) was 80 ± 3 ms and the “early afterdepolarizations, share of action potentials examined” value (Kir6.2-KO hearts; Kir6.2-KO hearts, isoproterenol challenge) was 97±2%. For the same molecule, the “fold higher risk of premature ventricular complexes, Kir6.2-KO versus wild-type” value (Kir6.2-KO hearts; isoproterenol challenge) was 16 fold, the “knockouts with atrial fibrillation” value (Kir6.2 knockout mice) was 70% and the “cardiac rhythm after isoproterenol” value (wild-type mice) was “maintained normal sinus rhythm”. For the same molecule, the “atrial fibrillation under isoproterenol infusion” value ([2]; patient with ABCC9 mutation, before ablation) was “provoked”.
In the case of `CC(C)NCC(O)c1ccc(NS(C)(=O)=O)cc1` (stereo not drawn) [sotalol], the “complication of drug use” value ([2]; human, in vivo) is reported as “symptomatic bradycardia” and the “response of atrial fibrillation to antiarrhythmic medical therapy” value [2] is reported as “refractory and/or intolerant”.
In the case of `COc1ccc(CCN(C)CCCC(C#N)(c2ccc(OC)c(OC)c2)C(C)C)cc1OC` (stereo not drawn) [verapamil], the median survival time (Kir6.1-KO mice) is reported as 24 h, the “coronary vasodilation in TNFα-challenged hearts” value (Kir6.1-KO hearts; 1 μM verapamil after TNFα) is reported as “reinstated coronary vasodilation” and the left ventricular hypertrophy [5] is reported as “not affected”. For the same molecule, the mortality ([6]; hypertensive Kir6.2-KO) was “prevention of all mortality”, the “syndrome of heart failure including lung congestion” value ([6]; hypertensive Kir6.2-KO) was “averted” and the “degree of systemic hypertension” value [6] was “did not affect”.
For TNFα, the “coronary vasodilation (coronary flow) under TNFα” value (wild-type hearts [3]; recombinant TNFα 4 μg/l) was “induced maximal coronary vasodilation” and the “TNFα-induced increase in coronary flow” value (Kir6.1-KO hearts; 4, 8 or 20 μg/l TNFα) was “not observed”.
TNP-ATP was tested, and the “binding affinity of TNP-ATP, wild-type versus mutated NBD2” value [7] was “similar”.

— patent US20060263805A1, “Diagnosing and treating potassium channel defects” (priority 2005, published 2006)
